The target of data set [1] is T1, CHOK1 cells engineered to overexpress human CCR2 (Homo sapiens, UniProt P41597).
T1 construct: expressed in transfected cells; host or cells: CHOK1
Nature of the data set: Antibody Dependent Cellular Cytotoxicity (ADCC) Reporter Assay. The conditions noted are these: with anti-cotinine antibody (human IgG1 Fc, S239D/I332E); Jurkat FcγRIIIa NFAT-luciferase reporter cells; average if several runs; read-out: ADCC Reporter Assay pEC50 (converted). It is filed as cell-based. As for the experimental part: An antibody dependent cellular cytoxocity reporter assay was conducted using the following four assay components: (i) ARM compound of Formula (I) targeting CCR2 (concentrations ranging from 1 pM to 10 μM) (ii) anti-cotinine antibody having a heavy chain sequence of SEQ ID NO: 11 and a light chain sequence of SEQ ID NO: 12 (rabbit variable region with human IgG1 Fc domain containing a DE mutation (S239D/I332E)) (concentrations ranging from 0.01 μg/mL to 200 μg/mL); (iii) target cells: CHOK1 cells engineered to overexpress either human CCR2 (typically 1000-20,000 cells per well) and (iv) reporter cells: Jurkat cells engineered to express FcγRIIIa with the reporter gene luciferase under the control of the NFAT promoter (typically 3000-75,000 cells per well). Reagents were combined in a final volume of 20 μL in a 384-well tissue culture treated plate. All four assay components were incubated together for about 12-18 hours. Thereafter, BioGlo Detection reagent (Promega) was added to the wells to lyse the cells and provide a substrate for the luciferase reporter protein. Luminescence signal was measured on a microplate reader and signal:background was calculated by dividing the signal of a test well by the signal obtained when no heterobivalent compound of Formula (I) was added. EC50 calculations were done using Graphpad Prism Software, specifically a nonlinear regression curve fit (Y=Bottom+(Top−Bottom)/(1+10 ^((Log EC50−X)*HillSlope))).
ARMs compounds of Formula (I) of the invention were tested for ADCC activity in the above assay in or more experimental runs and the results are shown in Table 3 below. Potency of the compounds of Formula (I) of the invention is reported as a pEC50 value. The pEC50 value is the negative log of the EC50 value, wherein the EC50 value is the half maximal effective concentration measured in molar (M). For compounds tested in more than one experimental run, the pEC50 value is reported as an average.

Data set [2] deals with CCR2 expressing cells (CD11b+Ly6c+ Hi) in peripheral blood. The data set is described as follows: In Vivo Depletion Assay (flow cytometry of peripheral blood). On the set-up: species or system Human CCR2 (hCCR2) knock-in mice. Particulars: hCCR2 knock-in mice; IV 0.1 mpk compound + 10 mpk anti-cotinine antibody (mouse IgG2a Fc); peripheral blood at 48 hr. As for the experimental part:
(§1) Human CCR2 (hCCR2) knock-in mice (057 background) were dosed intravenously with a PBS solution containing a compound of Formula (I) to measure depletion of CCR2 expressing cells in peripheral blood. Peripheral blood from IV dosed mice was also analyzed to determine PK properties of the ARM compounds of Formula (I).
Stock solution preparation: Stock solutions of compounds of Formula (I) were prepared at 20 mg/mL and 100 mg/mL in DMSO for PK/PD and dose tolerability studies respectively. Stock solutions were stored at −20° C. until further usage.
Formulations preparation: On the day of experiment, the stock solution of the compound of Formula (I) was removed from storage at −20° C. and thawed at room temperature. Anti-cotinine antibody having a heavy chain sequence of SEQ ID NO: 13 and a light chain sequence of SEQ ID NO: 14 (rabbit variable region sequence with mouse IgG2a Fc domain), if required was removed from storage at −80° C. and thawed at room temperature. Antibody vials were immediately transferred into wet ice after thawing. Compounds of Formula (I) were further diluted in DMSO as per experimental requirements.
Formulation composition: The formulation composition was Saline: DMSO: PBS. Saline was added based on the quantity required and then stock solution of the compound of Formula (I) prepared in DMSO, followed by addition of antibody in PBS. Formulations were incubated at room temperature for 30 minutes before administration to the mouse. DMSO was used at 1 to 2% (v/v) in the final formulation.
(§2) Administration to Animal: Solution formulation of antibody and compound of Formula (I) was injected (bolus injection) to the restrained mouse in the right/left lateral tail vein. Animals were dosed with 0.1 milligram per kilogram (mpk) of the compound of Formula (I) and 10 mpk of the anti-cotinine antibody.
(§3) Terminal bleeding at end of experiment (48 hr): Approximately 250 μL of blood in K2EDTA tube and approximately 250 μL of blood in SST (serum separation tube) was collected from each mouse through retro-orbital bleeding under deep isoflurane anesthesia. After bleeding, each mouse was sacrificed by cervical dislocation. The blood distribution at termination was determined as follows: • For PK: 50 μL of K2EDTA blood was transferred to another tube for PK • Flow cytometry: Remaining blood (˜200 μL) was used for flow cytometry analysis. • For serum collection: serum separator tubes (BD) were centrifuged at 4° C., 5000 rpm for 15 minutes. Approximately 100 μL serum was separated and stored at −80° C. for further usage. • Blood drug concentration: Samples collected at the various timepoints (0.25 hr, 2 hr, 24 and 48 hr) were analyzed to determine blood drug concentration.
CCR2 depletion in peripheral blood was determined by flow cytometry. Briefly, peripheral blood was collected from all animals at the end of study termination and processed. Blood samples were lysed using 1×RBC Lysis buffer and the resulting cell pellet was washed twice in FACS buffer (HBSS containing 5% FBS). Cells were subjected to Fc blocking using mouse Fc block from Biolegend (Trustain, anti-mouse CD16/32, Cat: 101319) to block non-specific binding followed by surface staining for immune markers (CD45, CD3, CD11b, Ly6C, human CCR2). Surface staining was done for 30 minutes in ice and cells were washed twice to remove unbound antibodies. Cells were stained with 7AAD to determine viability and acquired on BD FACSVerse flow cytometer. Appropriate FMO controls and single-color controls were included in the experiment for gating and compensation respectively.
Percent depletion of CD11b+Ly6c+ Hi cells and CCR2 expression for the different treatment groups was determined. The results are shown below in Table 4 and are reported as percent (%) depletion of CCR2 expressing cells.
On the technique in general: In flow cytometry, cells or beads pass a laser one at a time.

The nature of data set [3]: Blood drug concentration analysis (LC-MS/MS) in In Vivo Depletion Assay. The conditions noted are these: human CCR2 (hCCR2) knock-in, 057 background, mouse, whole blood, hCCR2 knock-in mice, IV 0.1 mpk compound + 10 mpk anti-cotinine antibody, 48 hours post-dose, read-out: Exposure of Compound of Formula (I) 48 hours post-dose. As for the experimental part: as §1, §2
Collection of Blood for PK: Blood was collected at time points 0.25 hour, 2 hours, and […] following administration (50 μL/time point) through retro-orbital bleeding under mild isoflurane anesthesia.
as §3
Drug concentration in blood samples was determined by an LC-MS/MS-based bioanalytical method developed at Syngene. Samples were analyzed on Q-Trap, API-5500 LC-MS/MS system coupled with Exion UHPLC system from SCIEX, USA operated in multiple reaction monitoring mode employing electrospray ionization technique in positive polarity. Analyte and internal standard peaks were resolved on Synergi Polar, 75×2.0 mm, 4μ column using mobile phase 10 mM Ammonium acetate in Milli-Q water as phase A and 0.1% Formic acid in acetonitrile as Phase B. Gradient elution was performed with initial composition 95% Phase A at 0.0 min, holding it for 0.2 minutes, ramping to 5% by 1.0 minute, keeping the same for next 0.5 minutes and coming back to 95% by 1.6 minutes. The total run time was 2 minutes.
Working dilutions for calibration curve and quality control standards were prepared by serially diluting 20 mg/mL stock solution with DMSO. Spiked concentrations for calibration curve in the whole blood ranged from 1 ng/mL to 1000 ng/mL. The working solution of internal standard (Verapamil, 25 ng/mL) was prepared in acetonitrile. 10 μL of the study sample and calibration curve, quality control, and blank whole blood samples were aliquoted in 96 deep well plates for processing. 10 μL of Milli-Q water was added to all the samples and briefly vortexed to initiate complete hemolysis. 10 μL of 20 mM dithiothreitol (OTT) was added to all the samples and incubated for 30 minutes at 37° C. The addition of DTT enhanced the recovery of ARM compounds of Formula (I) from the biological matrix. 300 μL of working internal standard solution was added to all samples except total blank and wash samples, where 300 μL of acetonitrile was added. All the samples were vortex mixed for 5 minutes, followed by centrifugation at 4000 rpm for 10 minutes at 4° C. Supernatants were transferred to the loading plate and injected 3 μL to LC-MS/MS system for analysis. The results are shown below in Table 4 and are reported as compound exposure 48 hours post-dose

The values that follow come from patent US20250154288A1, “CYTOTOXICITY TARGETING CHIMERAS FOR C-C CHEMOKINE RECEPTOR 2-EXPRESSING CELLS” (GLAXOSMITHKLINE INTELLECTUAL PROPERTY DEVELOPMENT LIMITED, priority 2022, published 2025).

Molecules are shown by their SMILES.

With `CO[C@@H]1COCC[C@@H]1N[C@@H]1CC[C@@](C(=O)N2CCc3nc(CCCCNC(=O)[C@H]4CC[C@H](NC(=O)CCCO[C@H]5CC[C@H](OCCNC(=O)[C@H]6CC(=O)N(C)[C@@H]6c6cccnc6)CC5)CC4)c(C(F)(F)F)cc3C2)(C(C)C)C1` [Example 12, (2S,3S)-N-(2-(((1R,4S)-4-(4-(((1r,4R)-4-((4-(6-((1S,3R)-1-Isopropyl-3-(((3S,4S)-3-methoxytetrahydro-2H-pyran-4-yl)amino)cyclopentane-1-carbonyl)-3(trifluoromethyl)-5,6,7,8-tetrahydro-1,6-naphthyridin-2-yl)butyl)carbamoyl)cyclohexyl)amino)-4oxobutoxy)cyclohexyl)oxy)ethyl)-1-methyl-5-oxo-2-(pyridin-3-yl)pyrrolidine-3 carboxamide], the EC50 in data set [1] is 0.631 nM. For the same compound, the “% Depletion of CCR2 expressing cells” value in data set [2] is reported as 95.4%. The concentration at 48 h in data set [3] is 33.3 ng/mL.
`CO[C@@H]1COCC[C@@H]1N[C@@H]1CC[C@](CCCNC(=O)[C@H]2CC[C@H](NC(=O)CCCO[C@H]3CC[C@@H](OCCNC(=O)[C@H]4CC(=O)N(C)[C@@H]4c4cccnc4)CC3)CC2)(C(=O)N2CCc3ncc(C(F)(F)F)cc3C2)C1` [Example 5, (2S,3S)-N-(2-(((1S,4R)-4-(4-(((1S,4R)-4-((3-((1S,3R)-3-(((3S,4S)-3-Methoxytetrahydro-2H-pyran-4-yl)amino)-1-(3-(trifluoromethyl)-5,6,7,8-tetrahydro-1,6-naphthyridine-6-carbonyl)cyclopentyl)propyl)carbamoyl)cyclohexyl)amino)-4-oxobutoxy)cyclohexyl)oxy)ethyl)-1-methyl-5-oxo-2-(pyridin-3-yl)pyrrolidine-3-carboxamide]: in data set [1], the EC50 is 0.158 nM. The “% Depletion of CCR2 expressing cells” value in data set [2] is on record as 98.41%. Moreover, the concentration at 48 h in data set [3] is 95.4 ng/mL.
